Our source for the IC50 values is patent publication US20260098030A1, “NEGATIVE ALLOSTERIC MODULATORS OF METABOTROPIC GLUTAMATE RECEPTOR 2” (Vanderbilt University, priority 2022, published 2026).

Broadly, the IC50 is the point on the concentration scale where inhibition reaches its midpoint. A low value points to higher potency.

The target in one test is T1, human mGlu2 (Homo sapiens, UniProt Q14416).
T1 construct: expressed in transfected cells; host or cells: HEK-293 cells stably co-expressing GIRK channels
T1 sequence (Q14416 19-872): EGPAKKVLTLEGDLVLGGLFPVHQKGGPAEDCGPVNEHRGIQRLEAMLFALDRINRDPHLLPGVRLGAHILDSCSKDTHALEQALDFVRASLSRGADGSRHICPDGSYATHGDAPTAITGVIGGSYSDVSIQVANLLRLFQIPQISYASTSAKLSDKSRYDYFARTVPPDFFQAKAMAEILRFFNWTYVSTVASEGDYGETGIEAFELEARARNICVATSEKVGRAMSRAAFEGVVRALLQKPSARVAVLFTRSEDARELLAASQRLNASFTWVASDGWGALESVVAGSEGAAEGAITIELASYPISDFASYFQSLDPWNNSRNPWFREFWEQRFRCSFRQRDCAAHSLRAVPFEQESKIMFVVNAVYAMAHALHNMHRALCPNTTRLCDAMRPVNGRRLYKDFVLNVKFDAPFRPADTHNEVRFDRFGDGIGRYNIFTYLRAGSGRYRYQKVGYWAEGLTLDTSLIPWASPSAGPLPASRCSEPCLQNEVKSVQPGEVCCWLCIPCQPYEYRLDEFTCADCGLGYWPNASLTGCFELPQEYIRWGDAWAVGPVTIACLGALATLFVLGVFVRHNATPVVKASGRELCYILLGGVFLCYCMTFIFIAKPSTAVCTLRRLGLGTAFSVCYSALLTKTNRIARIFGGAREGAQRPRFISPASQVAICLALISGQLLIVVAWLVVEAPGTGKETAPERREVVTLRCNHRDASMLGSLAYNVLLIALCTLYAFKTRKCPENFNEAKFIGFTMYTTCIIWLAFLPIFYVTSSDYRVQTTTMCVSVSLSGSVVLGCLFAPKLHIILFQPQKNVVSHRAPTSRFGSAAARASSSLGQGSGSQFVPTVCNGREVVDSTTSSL
Kind of test: mGlu GIRK cell-based thallium flux assay, human mGlu2. As to conditions: HEK-293 cells co-expressing human mGlu2 and GIRK, EC80 glutamate. Here is the method: Human embryonic kidney (HEK-293) cell lines stably co-expressing human or rat mGlu2 and G protein-coupled inwardly rectifying potassium (GIRK) channels, or human mGlu3 and GIRK, were used for in vitro evaluation of compound activity in thallium flux assay using a fluorescent thallium indicator dye.
The day before the assay, GIRK cells co-expressing human mGlu3, human or rat mGlu2, as described above, were plated in black-walled, clear-bottomed, amine-coated 384-well plates at a density of 15,000 cells/20 μL/well in the assay medium (glutamine-depleted basal DMEM supplemented with 10% dialyzed FBS, 20 mM HEPES, 1 mM sodium pyruvate). Cells were incubated at 37° C. in the presence of 5% CO2. The next day, assay buffer (Hanks balanced salt solution, 20 mM HEPES, 4.16 mM sodium bicarbonate, pH 7.2) was prepared to dilute compounds and Thallos AM fluorescent dye solution. The 2× Thallos dye solution (final concentration 0.34 μM to the cells) was prepared by mixing the dye stock (2.97 mM in DMSO) to 1:1 with 10% pluronic acid before adding to the assay buffer. Cells were washed with assay buffer using a microplate washer to remove the medium, resulting in 20 μL of buffer remaining in each well. Immediately, 20 μL of 2× Thallos dye solution was added to cells, and incubated for one hour at 25° C. During the cell dye loading incubation period, a 10-point concentration serial dilution of compound was created from a 10 mM DMSO compound stock by performing a 1:3 serial dilution in DMSO using the Bravo liquid handler. The 2× compound plate was generated by transferring 0.24 μL of the diluted compound in each well to a daughter plate using an Echo acoustic liquid handler. This is further diluted in 40 μL assay buffer, resulting in a range from 30 μM to 1.5 nM final concentration in the assay. The agonist plate (5×) was prepared to include EC80 glutamate concentration (a concentration to elicit 80% of a maximally effective glutamate concentration) in thallium buffer (125 mM […], 1 mM magnesium sulfate, 1.8 mM calcium sulfate, 5 mM glucose, 10 mM HEPES, pH 7.2, 12.5 mM thallium sulfate).
After dye-loading, cell plates were washed with assay buffer to remove excess extracellular dye using a microplate washer, resulting in 20 μL of buffer remaining in each well. After a ten-minute equilibration period, cell, compound and agonist plates were loaded into a Hamamatsu μCell kinetic imaging plate reader equipped with liquid handler to monitor fluorescence changes at 480 nm excitation and 540 nm emission settings. Briefly, after collection of baseline fluorescence, 20 μL of compound was added and incubated for two minutes and twenty seconds. This is immediately followed by adding 10 μL of glutamate-thallium buffer to the wells containing compound. The fluorescent signal was monitored an additional 2.5 minutes after the glutamate addition. Multiple reference wells containing no compound received either no glutamate (for a baseline reference), EC80 glutamate, or ECmax glutamate (for normalization to maximum response). Fluorescence was measured throughout the experiment at a frequency of 1 measurement per every 2 seconds before the glutamate addition and a frequency of 1 measurement per every 1 second after the glutamate addition. Each compound concentration series occurred one time in each plate, and replicates from two or three plates were used in each experimental run. Thallium solutions were handled and disposed of according to guidelines from the Vanderbilt University Chemical Safety department.
Data were normalized using a static ratio function (F/F0) by dividing every fluorescent measurement by the initial fluorescent value for the corresponding well. The increase in signal resulting from the glutamate/thallium addition of the second add was measured by determining the slope from 3 seconds to 13 seconds after the addition. […]
As to `O=C1NCc2cc(-c3cnn(C4COC4)c3)c(-c3ccc(F)cc3)cc21` [Compound 3, 6-(4-fluorophenyl)-5-(1-(oxctan-3-yl)-1H-pyrazol-4-yl)isoindolin-1-one], the IC50 was greater than 10000 nM.

`Cn1ncc(-c2cc3c(cc2-c2ccc(F)cc2F)C(=O)NC3)c1C#N` [Compound 115, 4-(6-(2,4-difluorophenyl)-1-oxoisoindolin-5-yl)-1-methyl-1H-pyrazole-5-carbonitrile]: half-maximal inhibition (IC50) was put at 234 nM.

In turn, `CS(=O)(=O)Nc1cccc(-c2cc3c(cc2-c2ccc(F)cc2F)C(=O)NC3)c1` [Compound 116, N-(3-(6-(2,4-difluorophenyl)-1-oxoisoindolin-5-yl)phenyl)methanesulfonamide] had an IC50 of 931 nM.

In turn, `CNC(=O)c1cc(Cl)cc(-c2cc3c(cc2-c2ccc(F)cc2F)C(=O)NC3)c1` [Compound 117, 3-chloro-5-(6-(2,4-difluorophenyl)-1-oxoisoindolin-5-yl)-N-methylbenzamide] showed an IC50 of 737 nM. This IC50 and that of the compound before are within 1.5-fold of each other.

Compound `CC(C)NC(=O)c1cccc(-c2cc3c(cc2-c2ccc(F)cc2F)C(=O)NC3)c1` [Compound 118, 3-(6-(2,4-difluorophenyl)-1-oxoisoindolin-5-yl)-N-isopropylbenzamide] came in with a 50% inhibitory concentration (IC50) of 1990 nM.

Compound `CNS(=O)(=O)c1cccc(-c2cc3c(cc2-c2ccc(F)cc2F)C(=O)NC3)c1` [Compound 119, 3-(6-(2,4-difluorophenyl)-1-oxoisoindolin-5-yl)-N-methylbenzenesulfonamide] came in with an IC50 of 2700 nM.

Take `CC(=O)Nc1ccccc1-c1cc2c(cc1-c1ccc(F)cc1F)C(=O)NC2` [Compound 120, N-(2-(6-(2,4-difluorophenyl)-1-oxoisoindolin-5-yl)phenyl)acetamide]: the half-inhibitory concentration (IC50) came out at 1050 nM. Against the preceding compound, the IC50 is about 2.6-fold lower.

Compound `CNC(=O)c1ccc(F)c(-c2cc3c(cc2-c2ccc(F)cc2F)C(=O)NC3)c1` [Compound 121, 3-(6-(2,4-difluorophenyl)-1-oxoisoindolin-5-yl)-4-fluoro-N-methylbenzamide] had an IC50 of 1440 nM.

The compound `CS(=O)(=O)c1cccc(-c2cc3c(cc2-c2ccc(F)cc2F)C(=O)NC3)c1` [Compound 122, 6-(2,4-difluorophenyl)-5-(3-(methylsulfonyl)phenyl)isoindolin-1-one] came in with an IC50 of 1290 nM.

The compound `N#Cc1cc(F)ccc1-c1cc2c(cc1-c1ccc(F)cc1F)C(=O)NC2` [Compound 123, 2-(6-(2,4-difluorophenyl)-1-oxoisoindolin-5-yl)-5-fluorobenzonitrile] displayed an IC50 of 447 nM. Against the preceding compound, the IC50 is about 2.9-fold lower.

Compound `N#Cc1ccccc1-c1cc2c(cc1-c1ccc(F)cc1F)C(=O)NC2` [Compound 124, 2-(6-(2,4-difluorophenyl)-1-oxoisoindolin-5-yl)benzonitrile] yielded an IC50 of 496 nM.

Compound `Cn1cc(-c2cc3c(cc2-c2ccc(F)cc2F)C(=O)NC3)cc1C#N` [Compound 125, 4-(6-(2,4-difluorophenyl)-1-oxoisoindolin-5-yl)-1-methyl-1H-pyrrole-2-carbonitrile] showed an IC50 of 1140 nM. Compared with the last compound, the IC50 is about 2.3-fold higher.

Turning to `Cc1noc(C)c1-c1cc2c(cc1-c1ccc(F)cc1F)C(=O)NC2` [Compound 126, 6-(2,4-difluorophenyl)-5-(3,5-dimethylisoxazol-4-yl)isoindolin-1-one], the IC50 was greater than 10000 nM.

`CS(=O)(=O)n1cc(-c2cc3c(cc2-c2ccc(F)cc2F)C(=O)NC3)cn1` [Compound 127, 6-(2,4-difluorophenyl)-5-(1-(methylsulfonyl)-1H-pyrazol-4-yl)isoindolin-1-one] came in with an IC50 of 7940 nM.

`CS(=O)(=O)c1ccccc1-c1cc2c(cc1-c1ccc(F)cc1F)C(=O)NC2` [Compound 128, 6-(2,4-difluorophenyl)-5-(2-(methylsulfonyl)phenyl)isoindolin-1-one] came in with an IC50 of 3410 nM.

`CCn1cc(-c2cc3c(cc2-c2ccc(F)cc2F)C(=O)NC3)c(C(F)(F)F)n1` [Compound 129, 6-(2,4-difluorophcnyl)-5-(1-cthyl-3-(trifluoromethyl)-1H-pyrazol-4-yl)isoindolin-1-one] returned an IC50 of 767 nM.

`CC(C)Cn1cc(-c2cc3c(cc2-c2ccc(F)cc2F)C(=O)NC3)cn1` [Compound 130, 6-(2,4-difluorophenyl)-5-(1-isobutyl-1H-pyrazol-4-yl)isoindolin-1-one]: the midpoint of inhibition, the IC50, lay at 1000 nM.

`O=C1NCc2cc(-c3cnn(CC(F)(F)F)c3)c(-c3ccc(F)cc3F)cc21` [Compound 131, 6-(2,4-difluorophenyl)-5-(1-(2,2,2-trifluoroethyl)-1H-pyrazol-4-yl)isoindolin-1-one] showed a concentration for half-maximal inhibition (IC50) of 366 nM.

For `O=C1NCc2cc(-c3cnn(CC4CC4)c3)c(-c3ccc(F)cc3F)cc21` [Compound 132, 5-(1-(cyclopropylmethyl)-1H-pyrazol-4-yl)-6-(2,4-difluorophenyl)isoindolin-1-one], half-maximal inhibition (IC50) required 529 nM.

Compound `CC(C)n1cc(-c2cc3c(cc2-c2ccc(F)cc2F)C(=O)NC3)cn1` [Compound 133, 6-(2,4-difluorophenyl)-5-(1-isopropyl-1H-pyrazol-4-yl)isoindolin-1-one] yielded an IC50 of 1820 nM.

The compound `CCn1cc(-c2cc3c(cc2-c2ccc(F)cc2F)C(=O)NC3)cn1` [Compound 134, 6-(2,4-difluorophenyl)-5-(1-ethyl-1H-pyrazol-4-yl)isoindolin-1-one] gave an IC50 of 2350 nM.

Compound `O=C1NCc2cc(-c3ccc(=O)n(C(F)F)c3)c(-c3ccc(F)cc3F)cc21` [Compound 135, 5-(1-(difluoromethyl)-6-oxo-1,6-dihydropyridin-3-yl)-6-(2,4-difluorophenyl)isoindolin-1-one] registered an IC50 of 2020 nM.

The compound `O=C1NCc2cc(-c3cccc4c3CNC4=O)c(-c3ccc(F)cc3F)cc21` [Compound 136, 6′-(2,4-difluorophenyl)-[4,5′-biisoindoline]-1,1′-dione] came in with an IC50 of 3180 nM.

`Nc1ccccc1-c1cc2c(cc1-c1ccc(F)cc1F)C(=O)NC2` [Compound 137, 5-(2-aminophenyl)-6-(2,4-difluorophenyl)isoindolin-1-one] had an IC50 of 816 nM.

`N#Cc1cccc(-c2cc3c(cc2-c2ccc(C#N)cc2F)C(=O)NC3)c1` [Compound 138, 4-(6-(3-cyanophenyl)-3-oxoisoindolin-5-yl)-3-fluorobenzonitrile] yielded an IC50 of 537 nM.

`N#Cc1cccc(-c2cc3c(cc2-c2ccc(F)c(F)c2F)C(=O)NC3)c1` [Compound 139, 3-(1-oxo-6-(2,3,4-trifluorophenyl)isoindolin-5-yl)benzonitrile] yielded an IC50 of 728 nM.

For the next test, the target named is T2, rat mGlu2 (Rattus norvegicus, UniProt P31421).
T2 construct: expressed in transfected cells; host or cells: HEK-293 cells stably co-expressing GIRK channels
T2 sequence (P31421 19-872): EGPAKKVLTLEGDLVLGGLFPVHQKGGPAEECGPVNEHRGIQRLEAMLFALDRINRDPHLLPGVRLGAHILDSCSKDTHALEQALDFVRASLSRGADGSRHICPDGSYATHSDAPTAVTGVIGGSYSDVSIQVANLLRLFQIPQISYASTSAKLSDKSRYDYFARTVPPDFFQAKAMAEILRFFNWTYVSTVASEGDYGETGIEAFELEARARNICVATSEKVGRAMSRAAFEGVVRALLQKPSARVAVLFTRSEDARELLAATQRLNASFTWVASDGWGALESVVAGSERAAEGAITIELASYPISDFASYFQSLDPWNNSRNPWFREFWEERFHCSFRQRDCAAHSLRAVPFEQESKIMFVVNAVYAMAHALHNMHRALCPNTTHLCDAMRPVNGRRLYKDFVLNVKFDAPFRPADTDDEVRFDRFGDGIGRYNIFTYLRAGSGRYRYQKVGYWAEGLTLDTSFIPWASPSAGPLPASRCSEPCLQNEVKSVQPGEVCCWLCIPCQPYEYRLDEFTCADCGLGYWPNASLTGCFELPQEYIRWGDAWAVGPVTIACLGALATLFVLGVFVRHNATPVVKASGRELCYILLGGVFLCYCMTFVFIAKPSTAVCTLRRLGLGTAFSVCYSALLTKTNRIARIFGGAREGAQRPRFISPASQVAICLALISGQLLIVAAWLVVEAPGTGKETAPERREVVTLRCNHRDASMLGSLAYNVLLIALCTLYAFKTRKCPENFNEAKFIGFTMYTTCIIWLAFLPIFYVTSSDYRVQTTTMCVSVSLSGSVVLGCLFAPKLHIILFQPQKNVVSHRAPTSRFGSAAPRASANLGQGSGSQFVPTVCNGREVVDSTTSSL
Kind of test: mGlu GIRK cell-based thallium flux assay, rat mGlu2. The conditions noted are these: HEK-293 cells co-expressing rat mGlu2 and GIRK, EC80 glutamate. The essentials: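 HEK-293 cells stably co-expressing GIRK with human mGlu3, human mGlu2 or rat mGlu2 were loaded 1 h at 25° C with Thallos dye, then given compound (30 μM to 1.5 nM final, 10-point) for 2 min 20 s before EC80 glutamate plus thallium. Baseline-corrected fluorescence slope, normalized to ECmax glutamate, fitted to 4-parameter logistic for IC50.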
Regarding `N#Cc1ccc(-n2cc(-c3cc4c(cc3-c3ccc(F)cc3F)C(=O)NC4)cn2)cc1` [Compound 111, 4-(4-(6-(2,4-difluorophenyl)-1-oxoisoindolin-5-yl)-1H-pyrazol-1-yl)benzonitrile], the IC50 was greater than 10000 nM.

For `Cc1nnc(-c2ccc(-c3cc4c(cc3-c3ccc(F)cc3F)C(=O)NC4)cc2F)o1` [Compound 112, 6-(2,4-difluorophenyl)-5-(3-fluoro-4-(5-methyl-1,3,4-oxadiazol-2-yl)phenyl)isoindolin-1-one], the IC50 was greater than 10000 nM.

`CN1CCN(c2ccc(-c3cc4c(cc3-c3ccc(F)cc3F)C(=O)NC4)cc2)CC1` [Compound 113, 6-(2,4-difluorophenyl)-5-(4-(4-methylpiperazin-1-yl)phenyl)isoindolin-1-one] registered an IC50 greater than 10000 nM.

As for `O=C1NCc2cc(-c3c[nH]nc3C(F)(F)F)c(-c3ccc(F)cc3F)cc21` [Compound 114, 6-(2,4-difluorophenyl)-5-(3-(trifluoromethyl)-1H-pyrazol-4-yl)isoindolin-1-one], the IC50 is greater than 10000 nM.
